In DBAASP one finds MIC data, which are given here for 6 compounds.

Each structure is given as a SMILES string. Converted amounts (≈) assume the structure as drawn. “And” between values parts separate entries of the source, which are not always exact repeats. Equal entries are not always repeated.

Some test systems named below: Bacillus subtilis DELTA; Candida parapsilosis; Candida krusei CCM 8271; Bacillus subtilis; Bacillus cereus; Bacillus cereus AS1.126; Escherichia coli AS1.349.
Common to all, as to assay: ≥ marks a high value that may be exact or a test limit, other limits are often not marked, values filed in µg/mL are converted to µM
In test [1] the test system is Staphylococcus aureus ATCC 33591.
The subject of test [2] is Escherichia coli ATCC 25922.
In test [3] the test system is Enterococcus faecium ATCC 700221.
Test [4] relates to Escherichia coli DH5alpha.
Test [5] concerns Zymomonas mobilis ATCC 10988.
For test [6], the system named is Candida albicans ATCC 200955.
Test [7] relates to Pseudomonas aeruginosa ATCC 27853.
Test [8] deals with Streptococcus pneumoniae BCRC 10794.
Test [9] concerns Candida parapsilosis CCM 8260.
For test [10], the system named is Klebsiella pneumoniae subsp. pneumoniae CGMCC 1.176.
The subject of test [11] is Staphylococcus epidermidis PCM 2118.
In test [12] the test system is Candida albicans CCM 8186.
In test [13] the test system is Escherichia coli PCM 2057.
For test [14], the system named is Pseudomonas aeruginosa PCM 499.
Test [15] deals with Proteus mirabilis CICC 22931.
Test [16] concerns Staphylococcus aureus PCM 2054.
Test [17] deals with Streptococcus mutans CGMCC 1.2500.
Test [18] has as its system Staphylococcus aureus PMC 1650.
Test [19] relates to Pseudomonas aeruginosa CGMCC 1.860.
For test [20], the system named is Staphylococcus epidermidis CICC 23664.
For test [21], the system named is Enterobacter cloacae CGMCC 1.58.
Test [22] concerns Candida glabrata CCM 8270.
In test [23] the test system is Lactobacillus acidophilus CGMCC 1.1854.
Test [24] relates to Candida albicans CMCC 98001.
In test [25] the test system is Streptococcus sanguinis CGMCC 1.2497.
Test [26] has as its system Staphylococcus epidermidis PCM 521.
In test [27] the test system is Fusobacterium nucleatum CGMCC 1.2526.
Test [28] concerns Candida tropicalis CCM 8264.
The subject of test [29] is Streptococcus salivarius CGMCC 1.2498.
Test [30] concerns Candida albicans PCM 2566.
In test [31] the test system is Enterococcus faecalis CGMCC 1.595.
For test [32], the system named is Staphylococcus aureus AS1.72.
Test [33] relates to Enterococcus faecium CGMCC 1.2334.
The test system of test [34] is Bacillus subtilis ATCC 6633.
Test [35] has as its system Escherichia coli DSM 1103.
The subject of test [36] is Micrococcus luteus DSM 1790.
Test [37] concerns Kocuria rhizophila DSM 348.
Test [38] deals with Staphylococcus aureus DSM 1104.
The test system of test [39] is Klebsiella pneumoniae ATCC 13883.
The subject of test [40] is Listeria monocytogenes ATCC 35152.
The subject of test [41] is Staphylococcus aureus ATCC 25923.
The test system of test [42] is Salmonella enterica subsp. enterica serovar Typhi DMST 22842.
For test [43], the system named is Staphylococcus epidermidis ATCC 12228.

For `CC[C@H](C)[C@H](NC(=O)[C@H](Cc1ccccc1)NC(=O)[C@H](CCCCN)NC(=O)[C@H](CC(C)C)NC(=O)[C@H](CC(C)C)NC(=O)CN)C(=O)N[C@@H](CCCCN)C(=O)N[C@@H](CCCCN)C(=O)N[C@@H](CC(C)C)C(=O)N[C@@H](CC(C)C)C(N)=O` [GLLKFIKKLL], the MIC (usually the lowest concentration that inhibits growth of the organism) in test [1] is 9.5 µM (≈ 11.1 µg/mL); in test [2], 9.5 µM (≈ 11.1 µg/mL); in test [3], 9.5 µM (≈ 11.1 µg/mL); in [4], ≥ 256 µM; in [5], 5.97 µM (≈ 6.99 µg/mL); against Bacillus subtilis DELTA, 25.6 µM (≈ 30 µg/mL). Moreover, the MIC was 9.5 µM (≈ 11.1 µg/mL) in test [6], 28.4 µM (≈ 33.3 µg/mL) in test [7] and ≥ 34.1 µM with Candida parapsilosis.

Regarding `CC[C@H](C)[C@H](NC(C)=O)C(=O)N[C@@H](Cc1cnc[nH]1)C(=O)NCC(=O)N[C@@H](CC(C)C)C(=O)N[C@H](C(N)=O)C(C)C` [IHGLV], in [8], the MIC was ≥ 186 µM.

Regarding `CC[C@H](C)[C@H](N)C(=O)N[C@@H](CCCCN)C(=O)N[C@@H](CCCCN)C(=O)N[C@H](C(=O)N[C@@H](CC(C)C)C(=O)N[C@@H](CO)C(=O)N[C@@H](CCCCN)C(=O)N[C@H](C(=O)N[C@@H](CCCCN)C(=O)N[C@@H](CCCCN)C(=O)N[C@@H](CC(C)C)C(=O)N[C@@H](CC(C)C)C(=O)N[C@@H](CCCCN)C(N)=O)[C@@H](C)CC)[C@@H](C)CC` [IKKILSKIKKLLK], the MIC in the test with Candida krusei CCM 8271 is 5.02 µM and 8.05 µM; in test [9], 5.02 µM and 8.05 µM; in test [10] it was ≥ 100 µM; with Bacillus subtilis, 5.02 µM (≈ 7.8 µg/mL); in test [11], 5.02 µM and 4.02 µM; in test [12], 20.2 µM (≈ 31.3 µg/mL). Moreover, the minimum inhibitory concentration (MIC) against Bacillus cereus is ≥ 32.2 µM; in test [13], ≥ 80.5 µM; in test [14], 16.1 µM (≈ 25 µg/mL); in [15], ≥ 100 µM; in test [16], ≥ 64.4 µM; in test [17], 3.13 µM (≈ 4.86 µg/mL). For the same compound, the MIC was ≥ 32.2 µM in test [18]; 6.25 µM (≈ 9.7 µg/mL) in test [19]; 4.69 µM (≈ 7.28 µg/mL) in test [20]; ≥ 100 µM in test [21]; 20.2 µM and 20.1 µM in test [22]; 3.13 µM (≈ 4.86 µg/mL) in test [23]. Moreover, the MIC in test [24] worked out at 6.25 µM (≈ 9.7 µg/mL); in test [25], 6.25 µM (≈ 9.7 µg/mL); in test [26], 4.02 µM (≈ 6.25 µg/mL); in [27], 4.69 µM (≈ 7.28 µg/mL); in test [28] it was 1.29 µM (≈ 2 µg/mL); in [29], 6.25 µM (≈ 9.7 µg/mL). For the same compound, the MIC was ≥ 32.2 µM in test [30]; 6.25 µM (≈ 9.7 µg/mL) in the test on Bacillus cereus AS1.126; 3.13 µM (≈ 4.86 µg/mL) in test [31]; 5 µM (≈ 7.76 µg/mL) in test [32]; 5 µM (≈ 7.76 µg/mL) in [33]; 3.13 µM (≈ 4.86 µg/mL) in the test on Escherichia coli AS1.349.

For `CC[C@H](C)[C@H](NC(=O)[C@H](CCCCN)NC(=O)CNC(=O)[C@H](C)NC(=O)[C@@H](NC(=O)[C@H](CCCCN)NC(=O)[C@H](C)NC(=O)[C@@H](NC(=O)[C@H](CCCCN)NC(=O)CNC(=O)[C@H](C)NC(=O)[C@@H](NC(=O)[C@H](CCCCN)NC(=O)[C@H](C)NC(=O)[C@@H](NC(=O)[C@H](CCCCN)NC(=O)CNC(=O)[C@H](C)NC(=O)[C@@H](NC(=O)[C@@H](N)CCCCN)[C@@H](C)CC)[C@@H](C)CC)[C@@H](C)CC)[C@@H](C)CC)[C@@H](C)CC)C(=O)N[C@@H](C)C(=O)O` [KIAGKIAKIAGKIAKIAGKIA], the MIC is 3.88 µM (≈ 8 µg/mL) in test [34]; 3.88 µM (≈ 8 µg/mL) in test [35]; 7.75 µM (≈ 16 µg/mL) in [4]; 7.75 µM (≈ 16 µg/mL) in test [36]; ≥ 62 µM in test [37]; ≥ 62 µM in [38].

On to `CC(C)C[C@H](NC(=O)[C@@H](NC(=O)[C@H](CCC(N)=O)NC(=O)[C@H](CCCCN)NC(=O)[C@H](Cc1cnc[nH]1)NC(=O)[C@H](CC(C)C)NC(=O)[C@H](C)NC(=O)[C@@H](NC(=O)[C@H](CC(C)C)NC(=O)[C@H](CCCCN)NC(=O)[C@H](CC(C)C)NC(=O)[C@@H](N)CCCCN)C(C)C)C(C)C)C(N)=O` [KLKLVALHKQVL], for which the MIC in [39] amounted to 18 µM (≈ 25 µg/mL); in [40], 14.4 µM (≈ 20 µg/mL); in test [2], 10.8 µM (≈ 15 µg/mL); in test [7], 18 µM (≈ 25 µg/mL); in [41], 7.2 µM (≈ 9.99 µg/mL).

For the compound `CC(C)[C@H](NC(=O)CNC(=O)[C@@H](N)CC(N)=O)C(=O)N[C@@H](CCC(N)=O)C(=O)N1CCC[C@H]1C(=O)N[C@@H](CCCCN)C(=O)N[C@@H](Cc1ccc(O)cc1)C(=O)N[C@@H](CCCN=C(N)N)C(=O)N[C@@H](Cc1c[nH]c2ccccc12)C(=O)N[C@@H](Cc1c[nH]c2ccccc12)C(=O)N[C@@H](CCCN=C(N)N)C(=O)N[C@@H](Cc1c[nH]c2ccccc12)C(=O)N[C@@H](Cc1c[nH]c2ccccc12)C(=O)N[C@@H](CCCN=C(N)N)C(=O)N[C@@H](CCCN=C(N)N)C(=O)N[C@@H](Cc1c[nH]c2ccccc12)C(=O)N[C@@H](Cc1c[nH]c2ccccc12)C(=O)O` [NGVQPKYRWWRWWRRWW], the MIC in [2] was 18.1 µM (≈ 46 µg/mL); in test [42], ≥ 35.7 µM; in [43] it was 9.03 µM (≈ 23 µg/mL); in test [41] it was > 35.7 µM.
